Values after ≈ are worked out from the molar mass of the structure shown. Read-outs that look alike come from different tables or passages of the source.
Legend:
Format in all cases: cell-based
[1] = test system: S. pneumoniae; experiment: Antibacterial activity (MIC); settings: Streptococcus pneumoniae
[2] = test system: S. pyogenes; experiment: Antibacterial activity (MIC); settings: Streptococcus pyogenes
[3] = test system: S. faecalis; experiment: Antibacterial activity (MIC); settings: Enterococcus faecalis
[4] = test system: S. aureus; experiment: Antibacterial activity (MIC); settings: Staphylococcus aureus
[5] = test system: S. aureus /50% serum; experiment: Antibacterial activity (MIC), 50% serum; settings: Staphylococcus aureus
[6] = test system: S. aureus /Pen. Res.; experiment: Antibacterial activity (MIC); settings: Staphylococcus aureus
[7] = test system: S. aureus /Meth. Res.; experiment: Antibacterial activity (MIC); settings: Staphylococcus aureus
[8] = test system: E. coli; experiment: Antibacterial activity (MIC); settings: Escherichia coli
[9] = test system: K. pneumoniae; experiment: Antibacterial activity (MIC); settings: Klebsiella pneumoniae
[10] = test system: E. cloacae; experiment: Antibacterial activity (MIC); settings: Enterobacter cloacae
[11] = test system: P. mirabilis; experiment: Antibacterial activity (MIC); settings: Proteus mirabilis
[12] = S. aureus /Pen. Res., read-out: MIC
[13] = S. aureus /Meth. Res., read-out: MIC

SMILES	MIC [1]	MIC [2]	MIC [3]	MIC [4]	MIC [5]	MIC [6, 12]	MIC [7, 13]	MIC ([8]; first of two lines)	MIC ([8]; second of two lines)	MIC ([9]; first of two lines)	MIC ([9]; second of two lines)	MIC [10]	MIC [11]	MIC [6]	MIC [7]
CC#CC1=C(C(=O)OC(c2ccccc2)c2ccccc2)N2C(=O)C(NC(=O)Cc3ccccc3)[C@H]2SC1 (some centres unmarked) [Ex. 2, Diphenylmethyl 7-phenylacetamido-3-(1-propynyl)-3-cephem-4-carboxylate]	8 mg/L (≈ 15.3 µM)	4 mg/L (≈ 7.65 µM)	16 mg/L (≈ 30.6 µM)	4 mg/L (≈ 7.65 µM)	> 16 mg/L	8 mg/L (≈ 15.3 µM)	> 16 mg/L	16 mg/L (≈ 30.6 µM)	16 mg/L (≈ 30.6 µM)	16 mg/L (≈ 30.6 µM)	> 16 mg/L	> 16 mg/L	16 mg/L (≈ 30.6 µM)		
N[C@@H](C(=O)N[C@@H]1C(=O)N2C(C(=O)O)=C(Cl)CS[C@H]12)c1ccccc1 [CEFACLOR, reference compound]	0.13 mg/L (≈ 0.353 µM)	0.13 mg/L (≈ 0.353 µM)	32 mg/L (≈ 87 µM)	0.25 mg/L (≈ 0.68 µM)	1 mg/L (≈ 2.72 µM)			1 mg/L (≈ 2.72 µM)	2 mg/L (≈ 5.44 µM)	0.5 mg/L (≈ 1.36 µM)	63 mg/L (≈ 171 µM)	> 125 mg/L	2 mg/L (≈ 5.44 µM)	1 mg/L (≈ 2.72 µM)	> 125 mg/L
CC1=C(C(=O)O)N2C(=O)[C@@H](NC(=O)[C@H](N)c3ccccc3)[C@H]2SC1 [CEPHALEXIN, reference compound]	0.5 mg/L (≈ 1.44 µM)	0.25 mg/L (≈ 0.72 µM)	63 mg/L (≈ 181 µM)	0.5 mg/L (≈ 1.44 µM)	1 mg/L (≈ 2.88 µM)			4 mg/L (≈ 11.5 µM)	4 mg/L (≈ 11.5 µM)	4 mg/L (≈ 11.5 µM)	63 mg/L (≈ 181 µM)	> 125 mg/L	4 mg/L (≈ 11.5 µM)	8 mg/L (≈ 23 µM)	> 125 mg/L
CC(C)=CC1=C(C(=O)OC(c2ccccc2)c2ccccc2)N2C(=O)C(NC(=O)Cc3ccccc3)[C@H]2SC1 (some centres unmarked) [Ex. 3, Diphenylmethyl 7-phenylacetamido-3-(2-methyl-1-propenyl)-3-cephem-4-carboxylate]	0.03 mg/L (≈ 0.0557 µM)	0.03 mg/L (≈ 0.0557 µM)	4 mg/L (≈ 7.43 µM)		0.06 mg/L (≈ 0.111 µM)	0.5 mg/L (≈ 0.928 µM)	> 125 mg/L	2 mg/L (≈ 3.71 µM)	32 mg/L (≈ 59.4 µM)	4 mg/L (≈ 7.43 µM)	> 125 mg/L	63 mg/L (≈ 117 µM)	4 mg/L (≈ 7.43 µM)		
C/C=C\C1=C(C(=O)OC(c2ccccc2)c2ccccc2)N2C(=O)C(NC(=O)Cc3ccccc3)[C@H]2SC1 (some centres unmarked) [Ex. 1, Diphenylmethyl 7-phenylacetamido-3-(Z-1-propenyl)-3-cephem-4-carboxylate]	0.03 mg/L (≈ 0.0572 µM)	0.016 mg/L (≈ 0.0305 µM)	8 mg/L (≈ 15.2 µM)	0.13 mg/L (≈ 0.248 µM)	0.5 mg/L (≈ 0.953 µM)	1 mg/L (≈ 1.91 µM)	> 125 mg/L	1 mg/L (≈ 1.91 µM)	4 mg/L (≈ 7.62 µM)	0.5 mg/L (≈ 0.953 µM)	63 mg/L (≈ 120 µM)	> 125 mg/L	1 mg/L (≈ 1.91 µM)		
CC=C=CC1=C(C(=O)O)N2C(=O)C(NC(=O)[C@H](N)c3ccc(O)cc3)C2SC1 (some centres unmarked) [Ex. 14]	2 mg/L (≈ 4.98 µM)	2 mg/L (≈ 4.98 µM)	> 63 mg/L	8 mg/L (≈ 19.9 µM)	32 mg/L (≈ 79.7 µM)	63 mg/L (≈ 157 µM)	> 63 mg/L	> 63 mg/L	> 63 mg/L	> 63 mg/L	> 63 mg/L	> 63 mg/L	63 mg/L (≈ 157 µM)		
